Measurements from PubChem BioAssay (NCI).
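Where inhibition never reached the appropriate level, the endpoint shown equals the highest concentration tested. Otherwise, values were interpolated linearly from a five-concentration, 48-hour dose response in 96-well plates. At the GI50, growth is halved. Definition used: TGI = concentration required for complete inhibition of growth.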

Experiments:
Test in all cases: NCI tumour cell line growth inhibition, 48 h
SR leukemia = tested on: SR leukemia
PC-3 prostate = tested on: PC-3 prostate
P388/ADR leukemia = tested on: P388/ADR leukemia
DMS 114 small cell lung = tested on: DMS 114 small cell lung

| SMILES | TGI (SR leukemia) [µM] | TGI (PC-3 prostate) [µM] | TGI (P388/ADR leukemia) [µM] | TGI (DMS 114 small cell lung) [µM] | other results |
| --- | --- | --- | --- | --- | --- |
| COc1cc2c(cc1OC)-c1cc3ccccc3c[n+]1CC2 | > 100 | > 100 | – | – | – |
| CCOc1ccc2nc(-c3ccc(O)cc3)sc2c1 | – | > 100 | – | – | – |
| O=C(Nc1cccc(-n2ccc3c(NC(=O)c4ccccc4)nccc32)c1)c1ccc(N2CCOCC2)c(C(F)(F)F)c1 | > 100 | > 100 | – | – | GI50 (SR leukemia): 45 nM; GI50 (PC-3 prostate): 53.8 nM |
| CC1(C)CC23C4COC(=O)C2CCC1C3CC4=O (centres undefined) | – | – | 84.5 | – | – |
| COC1=C2CC(C)CC(OC)C(O)C(C)/C=C(\C)C(OC(N)=O)C(OC)/C=C\C=C(/C)C(=O)NC(=C(C=NC(C)(C)C)C1=O)C2=O (centres undefined) | – | – | 62.5 | 3.82 | – |
| O=C1OC[C@@H]2[C@@H](O)CCCCCN12 | > 100 | > 100 | – | – | – |
| Fc1ccc2[nH]cc(-c3nc(-c4c[nH]c5ncccc45)cs3)c2c1 | > 100 | – | – | – | GI50 (SR leukemia): 2790 nM |
| N/C(=N\N=C/c1ccccc1O)NO | – | – | 10.8 | 30.7 | – |
| Nc1ncnc2c1ncn2C1OC(COP(=O)(O)O)C(O)C1O (centres undefined) | – | – | > 50 | > 50 | – |
| CCOC(=O)NC(Nc1ncccn1)(C(F)(F)F)C(F)(F)F | > 100 | – | – | – | – |
